Literature values, collected in US6800435B2, “Insect sodium channels from insecticide-susceptible and insecticide-resistant house flies” (Cornell Research Foundation, Inc., priority 1996, dated 2004).

Test system: resistant (538ge) house fly strain
Details: kdr trait, adult flies, Sawicki 1978

Clc1ccc(C(c2ccc(Cl)cc2)C(Cl)(Cl)Cl)cc1 [DDT, 1,1-bis-(4-chlorophenyl)-2,2,2-trichloroethane]
doses required to kill approximately 50% of the treated individuals: approximately 0.5 μg per adult fly
